Data as given in PMC6915728 (Nature Communications, 2019).
Like-named read-outs stand apart in the source and are kept apart here.

Tests used:
[1] = test system: E. coli BW25113 overexpression strains (ASKA plasmids); assay: Minimum inhibitory concentration (MIC), serial broth dilution, single-gene overexpression strains vs empty-vector control; format: cell-based, Escherichia coli; settings: MIC of overexpression strain / MIC of empty-plasmid control, broth dilution, MS medium, 100 µM IPTG, 30 °C, 20-24 h, OD600, 3 replicates
Procedure, shortened: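 E. coli overexpression strains grown in MS medium with chloramphenicol, induced with 100 µM IPTG for 1 h at 30 °C, then about half-million cells inoculated into 12-step AMP dilutions (typically 1.2-fold steps). OD600 read after 20–24 h at 30 °C with shaking; triplicate strains compared with empty-vector control.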

[2] = test system: E. coli; settings: previous laboratory evolution experiment; cited from earlier work
Source text: The results presented in this study may have important implications for the development of AMP-based therapies. Previous works reported several instances of cross-resistance interactions between membrane-targeting peptides (Supplementary Data 1), however, the potential for cross-resistance across AMPs with different modes of action has remained poorly understood. Specifically, while cross-resistance between host and therapeutic AMPs is certainly a realistic danger, not all AMPs are equally prone to cross-resistance. Given the immense diversity of AMPs with major differences in physicochemical ...

[3] = test system: AMP-evolved E. coli lines; settings: ref Spohn et al 2019, cited from earlier work
Source text: Supplement 41467_2019_13618_MOESM13_ESM.xlsx, sheet "Figure 6 and S15" | column: A comprehensive dataset of antimicrobial susceptibility of AMP-adapted lines to antimicrobial peptides (AMPs).

[4] = test system: bacterial membrane; settings: literature mining; ref superscript numbers in the cell, listed in Supplementary Data 7 sheet References; cited from earlier work
Source text: Supplement 41467_2019_13618_MOESM10_ESM.xlsx, sheet "AMP details" | column: Pore formation

**Q.** With “SWLSKTAKKLENSAKKRISEGIAIAIQGGPR [CP1, Cecropin P1, antimicrobial peptide, source Ascaris suum; disrupts cell membrane; cluster C1]” as the sequence, how does the “Relative MIC” value ([1]; overexpression strain nikB) read?
**A.** 0.8

**Q.** What about the “Relative MIC” value ([1]; overexpression strain ptsN) of the same sequence?
**A.** 0.76

**Q.** What about the “Relative MIC” value ([1]; overexpression strain yiaJ) of the same sequence?
**A.** 0.8

**Q.** And the “Emergence of resistant lines in laboratory evolution” value [2]?
**A.** did not result in any significant resistant lines

**Q.** What about the “Relative change in MIC (MIC of the AMP-adpated line / MIC of the ancestral strain)” value ([3]; AMP-adapted line BAC5_3) of the same sequence?
**A.** 1.1

**Q.** What about the “Relative change in MIC (MIC of the AMP-adpated line / MIC of the ancestral strain)” value ([3]; AMP-adapted line BAC5_5) of the same sequence?
**A.** 1.2

**Q.** And the “Relative change in MIC (MIC of the AMP-adpated line / MIC of the ancestral strain)” value ([3]; AMP-adapted line BAC5_7)?
**A.** 1

**Q.** And the “Relative change in MIC (MIC of the AMP-adpated line / MIC of the ancestral strain)” value ([3]; AMP-adapted line BAC5_10)?
**A.** 1

**Q.** What about the “Relative change in MIC (MIC of the AMP-adpated line / MIC of the ancestral strain)” value ([3]; AMP-adapted line CAP18_2) of the same sequence?
**A.** 1

**Q.** And the “Relative change in MIC (MIC of the AMP-adpated line / MIC of the ancestral strain)” value ([3]; AMP-adapted line CAP18_5)?
**A.** 1.2

**Q.** What about the “Relative change in MIC (MIC of the AMP-adpated line / MIC of the ancestral strain)” value ([3]; AMP-adapted line CAP18_6) of the same sequence?
**A.** 1

**Q.** What about the “Relative change in MIC (MIC of the AMP-adpated line / MIC of the ancestral strain)” value ([3]; AMP-adapted line CAP18_8) of the same sequence?
**A.** 1

**Q.** And the “Relative change in MIC (MIC of the AMP-adpated line / MIC of the ancestral strain)” value ([3]; AMP-adapted line CAP18_10)?
**A.** 1

**Q.** What about the “Relative change in MIC (MIC of the AMP-adpated line / MIC of the ancestral strain)” value ([3]; AMP-adapted line HBD3_3) of the same sequence?
**A.** 1.1

**Q.** And the “Relative change in MIC (MIC of the AMP-adpated line / MIC of the ancestral strain)” value ([3]; AMP-adapted line HBD3_6)?
**A.** 1.1

**Q.** And the “Relative change in MIC (MIC of the AMP-adpated line / MIC of the ancestral strain)” value ([3]; AMP-adapted line HBD3_8)?
**A.** 1.2

**Q.** And the “Relative change in MIC (MIC of the AMP-adpated line / MIC of the ancestral strain)” value ([3]; AMP-adapted line HBD3_10)?
**A.** 1.2

**Q.** And the “Relative change in MIC (MIC of the AMP-adpated line / MIC of the ancestral strain)” value ([3]; AMP-adapted line LL37_1)?
**A.** 0.8

**Q.** And the “Relative change in MIC (MIC of the AMP-adpated line / MIC of the ancestral strain)” value ([3]; AMP-adapted line LL37_3)?
**A.** 1

**Q.** And the “Relative change in MIC (MIC of the AMP-adpated line / MIC of the ancestral strain)” value ([3]; AMP-adapted line LL37_6)?
**A.** 0.9

**Q.** And the “Relative change in MIC (MIC of the AMP-adpated line / MIC of the ancestral strain)” value ([3]; AMP-adapted line LL37_7)?
**A.** 1.1

**Q.** And the “Relative change in MIC (MIC of the AMP-adpated line / MIC of the ancestral strain)” value ([3]; AMP-adapted line LL37_10)?
**A.** 0.9

**Q.** And the “Relative change in MIC (MIC of the AMP-adpated line / MIC of the ancestral strain)” value ([3]; AMP-adapted line PEX_1)?
**A.** 1.1

**Q.** What about the “Relative change in MIC (MIC of the AMP-adpated line / MIC of the ancestral strain)” value ([3]; AMP-adapted line PEX_4) of the same sequence?
**A.** 1.2

**Q.** And the “Relative change in MIC (MIC of the AMP-adpated line / MIC of the ancestral strain)” value ([3]; AMP-adapted line PEX_5)?
**A.** 1.1

**Q.** And the “Relative change in MIC (MIC of the AMP-adpated line / MIC of the ancestral strain)” value ([3]; AMP-adapted line PEX_6)?
**A.** 1

**Q.** And the “Relative change in MIC (MIC of the AMP-adpated line / MIC of the ancestral strain)” value ([3]; AMP-adapted line PEX_7)?
**A.** 1.3

**Q.** And the “Relative change in MIC (MIC of the AMP-adpated line / MIC of the ancestral strain)” value ([3]; AMP-adapted line PR39_1)?
**A.** 1.1

**Q.** And the “Relative change in MIC (MIC of the AMP-adpated line / MIC of the ancestral strain)” value ([3]; AMP-adapted line PR39_2)?
**A.** 1.1

**Q.** And the “Relative change in MIC (MIC of the AMP-adpated line / MIC of the ancestral strain)” value ([3]; AMP-adapted line PR39_5)?
**A.** 1

**Q.** And the “Relative change in MIC (MIC of the AMP-adpated line / MIC of the ancestral strain)” value ([3]; AMP-adapted line PR39_7)?
**A.** 1

**Q.** What about the “Relative change in MIC (MIC of the AMP-adpated line / MIC of the ancestral strain)” value ([3]; AMP-adapted line PR39_10) of the same sequence?
**A.** 0.8

**Q.** And the “Relative change in MIC (MIC of the AMP-adpated line / MIC of the ancestral strain)” value ([3]; AMP-adapted line PROA_2)?
**A.** 1.1

**Q.** And the “Relative change in MIC (MIC of the AMP-adpated line / MIC of the ancestral strain)” value ([3]; AMP-adapted line PROA_3)?
**A.** 0.9

**Q.** And the “Relative change in MIC (MIC of the AMP-adpated line / MIC of the ancestral strain)” value ([3]; AMP-adapted line PROA_7)?
**A.** 0.8

**Q.** What about the “Relative change in MIC (MIC of the AMP-adpated line / MIC of the ancestral strain)” value ([3]; AMP-adapted line PROA_8) of the same sequence?
**A.** 0.9

**Q.** What about the “Relative change in MIC (MIC of the AMP-adpated line / MIC of the ancestral strain)” value ([3]; AMP-adapted line PROA_9) of the same sequence?
**A.** 1.1

**Q.** And the “Relative change in MIC (MIC of the AMP-adpated line / MIC of the ancestral strain)” value ([3]; AMP-adapted line PXB_2)?
**A.** 1.3

**Q.** And the “Relative change in MIC (MIC of the AMP-adpated line / MIC of the ancestral strain)” value ([3]; AMP-adapted line PXB_5)?
**A.** 1

**Q.** What about the “Relative change in MIC (MIC of the AMP-adpated line / MIC of the ancestral strain)” value ([3]; AMP-adapted line PXB_6) of the same sequence?
**A.** 1.2

**Q.** What about the “Relative change in MIC (MIC of the AMP-adpated line / MIC of the ancestral strain)” value ([3]; AMP-adapted line PXB_8) of the same sequence?
**A.** 1.1

**Q.** And the “Relative change in MIC (MIC of the AMP-adpated line / MIC of the ancestral strain)” value ([3]; AMP-adapted line PXB_10)?
**A.** 1.2

**Q.** What about the “Pore formation (whether AMP makes pores in the bacterial membrane)” value [4] of the same sequence?
**A.** Yes6-8
